{
  "source": "patent US8778906B2",
  "about": "“Modulation of line-1 reverse transcriptase” (ALT Solutions, Inc., priority 2003, dated 2014)",
  "key": {"[1]": {"tested_on": "WM1175 (malignant melanoma) or HUT292DM (lung cancer) cells", "experiment": "Telomerase-positive xenograft tumors in immunodeficient mice treated with AZT", "format": "in vivo", "conditions": "AZT at the dose tested (total daily dose 10 mg/kg)", "experimental": "After induction of tumors, mice in the experimental groups may be treated with AZT. Mice may be injected i.p. twice a day with solution of AZT in PBS with a total daily dose of 10 mg/kg. Mice in control group may be injected with PBS. Alternatively, AZT at the same daily dose may be given in drinking water. […] As a separate set of controls, telomerase-positive tumors in nude mouse may be induced by injecting the immunodeficient mice with WM1175 (malignant melanoma) or HUT292DM (lung cancer) cells instead of the transformed IIICF/c fibroblast cells."}, "[2]": {"tested_on": "U-2 OS cells", "experiment": "AZT treatment of ALT cells, flow cytometry for telomere length (PNA probe) and cell cycle (PI)", "format": "cell-based, human", "experimental": "(§1) Telomere length in AZT treated and untreated cell lines was measured by flow cytometry with a telomere-specific peptide nucleic acid (PNA) probe^22,23. To determine cell cycle distribution, cells were stained with propidium iodide (PI)^22. […] AZT at the chosen concentration had no effect on telomere length or cell cycle distribution in the HeLa cells (not shown).\nRate of DNA synthesis was determined by incorporation of 5-bromodeoxyuridine (BdU)^24.\n(§2) Cell lines: All cell lines used in this study were obtained from American Type Culture Collection (Rockville, Md.). The cells origins included osteosarcoma (Saos-2 and U-2 OS), liver ([…]) and uterine cervix (HeLa). Cells were cultured following ATCC recommendation. For treatment of the cells with AZT, the media was supplemented with 0.2 μM of 3′-azido-2′,3′-dideoxythymidine (Sigma)^28.\n(§3) Telomere length measurement by flow cytometry: Cell were stained with telomere specific FITC conjugated (C3TA2)3 PNA (Applied Biosystems) probe and contrastained with 0.06 μg/ml PI as described^21."}, "[3]": {"tested_on": "Saos-2 cells", "experiment": "AZT treatment of ALT cells, flow cytometry for telomere length (PNA probe) and cell cycle (PI)", "format": "cell-based, human", "conditions": "Saos-2, 0.2 μM AZT, 14 days", "experimental": "as §1, §2, §3"}},
  "data": [
    {"smiles": "Cc1cn([C@H]2C[C@H](N=[N+]=[N-])[C@@H](CO)O2)c(=O)[nH]c1=O", "note": "[AZT, 3′-azido-2′,3′-dideoxythymidine]", "values": [
      {"measurement": "inhibition of telomerase-positive tumors", "setting": "[1]", "result": "cannot be inhibited"},
      {"measurement": "DNA content (PI staining)", "setting": "[2]; AZT treated cells at later stages of treatment, compared to untreated cells", "result": "higher DNA content"},
      {"measurement": "time of AZT treatment after which changes in cell cycle distribution, DNA synthesis and telomere length could be detected", "setting": "[2]; U-2 OS, 0.2 μM AZT", "result": 10, "unit": "days"},
      {"measurement": "apoptosis", "setting": "[2]; U-2 OS, 0.2 μM AZT, 14 days", "result": "massive apoptosis"},
      {"measurement": "telomere length", "setting": "[2]; U-2 OS, 0.2 μM AZT, 14 days", "result": "telomere shortening"},
      {"measurement": "cell cycle distribution", "setting": "[2]; U-2 OS, 0.2 μM AZT, 14 days, PI staining", "result": "G2 arrest"},
      {"measurement": "apoptosis", "setting": "[3]", "result": "massive apoptosis"},
      {"measurement": "telomere length", "setting": "[3]", "result": "telomere shortening"},
      {"measurement": "cell cycle distribution", "setting": "[3]; PI staining", "result": "G2 arrest"}
    ]}
  ]
}
